Assay results published in patent US11384075B2, “Quinolinone compounds” (Janssen Pharmaceutica NV, priority 2017, dated 2022).

Experiments:
[1] = biological target: T1, NIH/3T3 cells overexpressing FGFR3 V555M-TACC3 fusion protein (Homo sapiens, UniProt P22607, V555M, cells depend on it); test: NIH/3T3 FGFR3 V555M-TACC3 cell proliferation assay; type: cell-based; conditions: 72-hr incubation, CellTiter Glo, starting with 10 μM; read-out: NIH/3T3 FGFR3 V555M-TACC3 CTG (IC50)
T1 construct: NIH/3T3 FGFR3 V555M-TACC3 CTG (IC50); other: 72-hr incubation, CellTiter Glo, starting with 10 μM; fused on or other part: Q9Y6A5 (Transforming acidic coiled-coil-containing protein 3)
T1 sequence (P22607 whole entry V555M, the tested form may be a part): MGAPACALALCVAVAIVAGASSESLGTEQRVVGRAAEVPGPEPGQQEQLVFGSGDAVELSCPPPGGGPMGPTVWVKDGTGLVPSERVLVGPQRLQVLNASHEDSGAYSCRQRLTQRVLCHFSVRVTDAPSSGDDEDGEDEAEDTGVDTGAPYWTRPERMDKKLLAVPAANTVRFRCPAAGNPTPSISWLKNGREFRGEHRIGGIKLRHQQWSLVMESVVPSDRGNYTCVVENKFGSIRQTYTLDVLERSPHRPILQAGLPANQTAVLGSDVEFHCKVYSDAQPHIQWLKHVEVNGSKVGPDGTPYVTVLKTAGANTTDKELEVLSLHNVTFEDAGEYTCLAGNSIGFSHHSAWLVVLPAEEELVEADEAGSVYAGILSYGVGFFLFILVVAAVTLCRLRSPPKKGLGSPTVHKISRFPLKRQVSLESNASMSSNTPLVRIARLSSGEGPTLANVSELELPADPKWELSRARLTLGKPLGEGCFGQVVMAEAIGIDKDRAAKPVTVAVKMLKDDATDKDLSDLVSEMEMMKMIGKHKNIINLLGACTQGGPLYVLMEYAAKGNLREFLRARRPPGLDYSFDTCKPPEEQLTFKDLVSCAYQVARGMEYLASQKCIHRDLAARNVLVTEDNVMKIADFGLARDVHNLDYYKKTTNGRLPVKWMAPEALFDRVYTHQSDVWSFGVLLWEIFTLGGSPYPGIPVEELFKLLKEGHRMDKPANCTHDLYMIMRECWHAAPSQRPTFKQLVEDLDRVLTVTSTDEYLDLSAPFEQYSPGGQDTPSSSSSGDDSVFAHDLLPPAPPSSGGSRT
Summary of the method: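 NIH/3T3 cells overexpressing FGFR3 V555M-TACC3 fusion, 30,000/well in DMEM/10% FBS, treated for 72 h at 37 °C with 9 doses (4× dilutions from 10 μM top, 0.1% DMSO). CellTiter-Glo luminescence normalised to % survival; IC50, pIC50 and Hill slope from concentration-response fits.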

[2] = biological target: T2, human FGFR3 V555M enzyme (cytoplasmic domain carrying V555M mutation) (Homo sapiens, UniProt P22607, V555M); test: FGFR3 V555M mobility shift assay (enzymatic assay); type: biochemical; conditions: 30 μM ATP, 45 minutes at 30° C., Caliper EZ reader II
T2 construct: human FGFR3 V555M enzyme (cytoplasmic domain carrying V555M mutation, from Carna Biosciences); purchased Carna Biosciences
T2 sequence (P22607 397-806 V555M limits assumed): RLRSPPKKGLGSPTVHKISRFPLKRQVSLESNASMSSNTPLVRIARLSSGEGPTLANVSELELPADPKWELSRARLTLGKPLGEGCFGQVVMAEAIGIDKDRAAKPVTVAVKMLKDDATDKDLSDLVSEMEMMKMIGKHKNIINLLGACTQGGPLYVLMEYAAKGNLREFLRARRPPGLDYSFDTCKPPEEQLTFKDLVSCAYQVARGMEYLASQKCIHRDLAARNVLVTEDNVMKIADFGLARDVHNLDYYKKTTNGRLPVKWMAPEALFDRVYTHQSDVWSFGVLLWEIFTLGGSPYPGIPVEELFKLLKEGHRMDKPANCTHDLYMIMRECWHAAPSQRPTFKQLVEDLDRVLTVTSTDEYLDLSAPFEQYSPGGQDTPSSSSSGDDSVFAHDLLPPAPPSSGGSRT
Summary of the method: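 Cytoplasmic-domain FGFR3 V555M (0.04 ng/μL) with 30 μM ATP and 1 μM FL-peptide 30 in HEPES pH 7.4/MgCl2/Brij35/DTT, 1% DMSO, 45 min at 30 °C, EDTA-stopped. Mobility-shift read of substrate-product conversion; 10-point 4× dilution from 10 μM fitted for IC50/pIC50.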

[3] = biological target: T3, human FGFR3 wild type enzyme (cytoplasmic domain) (Homo sapiens, UniProt P22607); test: FGFR3 wild type mobility shift assay (enzymatic assay); type: biochemical; conditions: 75 μM ATP, 50 minutes at 30° C., Caliper EZ reader II
T3 construct: human FGFR3 wild type enzyme (cytoplasmic domain, from Carna Biosciences); purchased Carna Biosciences
T3 sequence (P22607 397-806 limits assumed): as the sequence (P22607 397-806 V555M limits assumed) above, with M159V counted along it
Summary of the method: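 Cytoplasmic domain of human wild-type FGFR3 (0.04 ng/μL) with 75 μM ATP and 1 μM FL-peptide 30, pH 7.4 HEPES/MgCl2 buffer, 1% DMSO, 50 min at 30 °C, EDTA-stopped. Substrate-product conversion read by mobility shift. IC50, pIC50 and Hill slope from 10-point 4-fold dilutions starting at 10 μM.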

[4] = biological target: T4, NIH/3T3 cells overexpressing FGFR3 WT-TACC3 fusion protein (Homo sapiens, UniProt P22607); test: NIH/3T3 FGFR3 WT-TACC3 cell proliferation assay; type: cell-based; conditions: 72-hr incubation, CellTiter Glo, starting with 10 μM; read-out: NIH/3T3 FGFR3 WT-TACC3 CTG (IC50)
T4 construct: NIH/3T3 FGFR3 WT-TACC3 CTG (IC50); other: 72-hr incubation, CellTiter Glo, starting with 10 μM; fused on or other part: Q9Y6A5 (Transforming acidic coiled-coil-containing protein 3)
T4 sequence (P22607 whole entry, change not shown, the tested form may be a part): as the sequence (P22607 whole entry V555M, the tested form may be a part) above, with M555V counted along it
Summary of the method: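 Cells seeded overnight, then exposed 72 h at 37 °C to compound in 9-point 4-fold dilutions from 10 μM (0.1% DMSO final). Viability read by CellTiter-Glo luminescence, normalized to survival %; IC50, pIC50 and Hill slope from concentration-response fit.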

[5] = test system: NIH/3T3 cells transfected with the same control vector; test: NIH/3T3 mock cell proliferation assay (counter assay, general toxicity); type: cell-based; conditions: Mus musculus, NIH3T3, 72 h, 72-hr incubation, CellTiter Glo, starting with 30 μM; counter assay for general toxicity; read-out: NIH/3T3 MOCK CTG (IC50)
Summary of the method: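 Control-vector NIH/3T3 cells, 30,000/well in DMEM with 10% FBS, exposed 72 h at 37 °C to compound (9 points, 3-fold from 30 μM, 0.3% DMSO). CellTiter-Glo luminescence normalized to survival %; IC50, pIC50 and Hill slope from concentration-response fit.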

[6] = biological target: T5, human FGFR3 V555L enzyme (cytoplasmic domain carrying V555L mutation) (Homo sapiens, UniProt P22607, V555L); test: FGFR3 V555L mobility shift assay (enzymatic assay); type: biochemical; conditions: 40 μM ATP, 50 minutes at 30° C., Caliper EZ reader II
T5 construct: human FGFR3 V555L enzyme (cytoplasmic domain carrying V555L mutation, from Carna Biosciences); purchased Carna Biosciences
T5 sequence (P22607 397-806 V555L limits assumed): as the sequence (P22607 397-806 V555M limits assumed) above, with M159L counted along it
Protocol: FGFR3 V555L Mobility Shift Assay (Enzymatic Assay)
In a final reaction volume of 25 μL, 0.04 ng/μL human FGFR3 V555L enzyme (cytoplasmic domain carrying V555L mutation, from Carna Biosciences) was incubated with 40 μM ATP, 1 μM FL-peptide 30 substrate and 250 nL of testing compound (1% DMSO final) in assay buffer (100 mM HEPES pH 7.4, 10 mM MgCl2, 0.003% Brij35, 1 mM DTT). After incubation for 50 minutes at 30° C. the reaction was stopped with 10 μL of 0.5M EDTA pH 8.0, and then 25 μL of reaction mixture was transferred to reading plate and measured on Caliper EZ reader II. The substrate-product conversion rate was used as raw data for normalization and concentration-response curve (10 dose points with 4× serial dilution, starting with 10 μM) was plotted using Prism to calculate IC50 (M), pIC50 (−log IC50) and HillSlope value.

SMILES | GI50 [1] | IC50 [2] | IC50 [3] | GI50 [4] | IC50 [5] | IC50 [6]
C[C@H](Nc1c(-c2nc3ccc(N4CCN(C)CC4)cc3[nH]2)c(=O)[nH]c2ccccc12)c1ccccn1 [Compound 65, (S)-3-(6-(4-methylpiperazin-1-yl)-1H-benzo[d]imidazol-2-yl)-4-((1-(pyridin-2-yl)-ethyl)amino)quinolin-2(1H)-one] | 8.19 nM | 0.193 nM | 0.377 nM | 5.93 nM | 165 nM | 0.246 nM
O=c1[nH]c2ccccc2c(NC(c2ncccn2)C2CC2)c1-c1nc2ccc(N3CCOCC3)cc2[nH]1 (single isomer, unassigned) [Compound 33a, (S*)-4-((cyclopropyl(pyrimidin-2-yl)methyl)amino)-3-(6-morpholino-1H-benzo[d]imidazol-2-yl)quinolin-2(1H)-one] | 6.41 nM | 0.237 nM | 0.595 nM | 9.24 nM | 1080 nM | 0.63 nM
CCC(Nc1c(-c2nc3ccc(N4CCOCC4)cc3[nH]2)c(=O)[nH]c2ccccc12)c1ncccn1 (single isomer, unassigned) [Compound 30a, (S*)-3-(6-morpholino-1H-benzo[d]imidazol-2-yl)-4-((1-(pyrimidin-2-yl)propyl)amino)quinolin-2(1H)-one] | 5.34 nM | 0.177 nM | 0.281 nM | 7.19 nM | 2910 nM | 0.617 nM
C[C@H](Nc1c(-c2nc3ccc(N4CCN(C)CC4)cc3[nH]2)c(=O)[nH]c2cc(F)ccc12)c1ccccn1 [Compound 63, (S)-7-Fluoro-3-(6-(4-methylpiperazin-1-yl)-1H-benzo[d]imidazol-2-yl)-4-((1-(pyridin-2-yl)ethyl)amino)quinolin-2(1H)-one] | 51.4 nM | 1.65 nM | 0.709 nM |  | 637 nM | 1.39 nM
CC(C)C(Nc1c(-c2nc3ccc(N4CCOCC4)cc3[nH]2)c(=O)[nH]c2ccccc12)c1ncccn1 (single isomer, unassigned) [Compound 32a, (S*)-4-((2-methyl-1-(pyrimidin-2-yl)propyl)amino)-3-(6-morpholino-1H-benzo[d]imidazol-2-yl)quinolin-2(1H)-one] | 5.75 nM | 0.171 nM | 0.368 nM | 16.5 nM | 2610 nM | 0.364 nM
CC(C)N1CCN(c2ccc3nc(-c4c(N[C@@H](C)c5ccccn5)c5ccccc5[nH]c4=O)[nH]c3c2)CC1 [Compound 56, (S)-3-(6-(4-isopropylpiperazin-1-yl)-1H-benzo[d]imidazol-2-yl)-4-((1-(pyridin-2-yl)-ethyl)amino)quinolin-2(1H)-one] | 10.7 nM | 0.0676 nM | 0.128 nM |  | 770 nM | 0.135 nM
